Measurements taken from the kinase profiling compilation of Christmann-Franck et al. (2016).
Several values for one entry are separate records, joined by “and”; a condition that tells them apart may be missing. Identical values can stand only once. Values belong to the compound of their own block, whether it stands above or below them.

How the values were obtained:
Assay in all cases: radiometric filter-binding kinase assay
[1] = molecular target: INSRR (human) (UniProt P14616)
[2] = molecular target: MAP3K7 TAB1 (human) (UniProt Q15750+O43318)
Sequence of MAP3K7 TAB1 (human) (O43318 whole entry, looked up): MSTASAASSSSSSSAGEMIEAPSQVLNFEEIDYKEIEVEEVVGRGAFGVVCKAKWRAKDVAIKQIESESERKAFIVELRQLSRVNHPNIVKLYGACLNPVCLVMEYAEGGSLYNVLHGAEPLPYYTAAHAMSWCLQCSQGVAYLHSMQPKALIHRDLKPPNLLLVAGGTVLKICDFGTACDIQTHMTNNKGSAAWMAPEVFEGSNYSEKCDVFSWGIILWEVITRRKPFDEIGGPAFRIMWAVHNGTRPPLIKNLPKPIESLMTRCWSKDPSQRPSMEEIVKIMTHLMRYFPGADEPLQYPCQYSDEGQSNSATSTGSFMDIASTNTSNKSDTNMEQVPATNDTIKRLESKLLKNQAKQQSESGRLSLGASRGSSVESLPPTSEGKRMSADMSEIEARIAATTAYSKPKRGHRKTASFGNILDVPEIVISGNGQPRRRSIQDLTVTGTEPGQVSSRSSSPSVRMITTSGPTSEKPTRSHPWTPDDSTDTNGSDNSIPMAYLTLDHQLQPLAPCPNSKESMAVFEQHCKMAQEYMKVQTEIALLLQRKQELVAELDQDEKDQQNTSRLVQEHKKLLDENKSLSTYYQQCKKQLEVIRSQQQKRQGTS
Sequence of MAP3K7 TAB1 (human) (Q15750 whole entry, looked up): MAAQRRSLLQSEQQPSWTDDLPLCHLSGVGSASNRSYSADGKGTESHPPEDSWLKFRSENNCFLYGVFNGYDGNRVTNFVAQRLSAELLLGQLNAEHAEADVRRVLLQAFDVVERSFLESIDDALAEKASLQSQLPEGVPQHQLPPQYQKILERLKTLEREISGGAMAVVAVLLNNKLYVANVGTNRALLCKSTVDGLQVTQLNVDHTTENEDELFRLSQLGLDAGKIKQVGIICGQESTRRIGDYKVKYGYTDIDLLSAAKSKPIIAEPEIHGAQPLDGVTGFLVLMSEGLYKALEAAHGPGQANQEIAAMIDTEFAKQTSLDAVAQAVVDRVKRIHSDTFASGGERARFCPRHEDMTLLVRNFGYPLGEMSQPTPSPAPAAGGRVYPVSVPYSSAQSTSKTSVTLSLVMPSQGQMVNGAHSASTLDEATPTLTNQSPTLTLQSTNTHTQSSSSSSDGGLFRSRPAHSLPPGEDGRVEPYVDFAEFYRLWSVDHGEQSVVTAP

[3] = molecular target: GCK (human) (UniProt Q12851)
[4] = molecular target: INSR (human) (UniProt P06213)
[5] = molecular target: FGFR1 (human) (UniProt P11362)
[6] = molecular target: SRPK1 (human) (UniProt Q96SB4)
Sequence of SRPK1 (human) (Q96SB4 whole entry, looked up): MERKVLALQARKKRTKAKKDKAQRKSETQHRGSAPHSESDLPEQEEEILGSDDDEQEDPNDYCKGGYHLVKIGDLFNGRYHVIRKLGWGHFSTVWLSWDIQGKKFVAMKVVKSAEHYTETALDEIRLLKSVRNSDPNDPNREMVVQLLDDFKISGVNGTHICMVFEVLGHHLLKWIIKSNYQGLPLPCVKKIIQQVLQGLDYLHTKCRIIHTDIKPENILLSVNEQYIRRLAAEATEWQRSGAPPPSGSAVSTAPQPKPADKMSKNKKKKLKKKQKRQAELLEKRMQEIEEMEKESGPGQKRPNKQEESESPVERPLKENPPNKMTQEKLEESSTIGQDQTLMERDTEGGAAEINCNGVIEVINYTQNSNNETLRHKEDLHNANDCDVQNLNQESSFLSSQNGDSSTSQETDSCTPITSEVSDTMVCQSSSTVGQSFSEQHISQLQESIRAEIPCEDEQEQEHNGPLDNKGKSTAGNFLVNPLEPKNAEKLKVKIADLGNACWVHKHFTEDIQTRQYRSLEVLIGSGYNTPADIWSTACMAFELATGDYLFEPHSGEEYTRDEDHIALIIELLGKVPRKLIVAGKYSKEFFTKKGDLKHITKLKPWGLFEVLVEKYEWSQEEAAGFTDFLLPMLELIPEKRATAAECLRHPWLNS

[7] = molecular target: MAP2K2 (human) (UniProt P36507)
[8] = molecular target: MELK (human) (UniProt Q14680)
[9] = molecular target: EPHA2 (human) (UniProt P29317)
[10] = molecular target: IKBKB (human) (UniProt O14920)
[11] = molecular target: MAP3K9 (human) (UniProt P80192)
[12] = test system: RPS6KB1 (human), P23443 [T412E]
[13] = molecular target: IRAK4 (human) (UniProt Q9NWZ3)
[14] = molecular target: EPHB3 (human) (UniProt P54753)
[15] = molecular target: CaMK1 (human) (UniProt Q14012)
Sequence of CaMK1 (human) (Q14012 whole entry, looked up): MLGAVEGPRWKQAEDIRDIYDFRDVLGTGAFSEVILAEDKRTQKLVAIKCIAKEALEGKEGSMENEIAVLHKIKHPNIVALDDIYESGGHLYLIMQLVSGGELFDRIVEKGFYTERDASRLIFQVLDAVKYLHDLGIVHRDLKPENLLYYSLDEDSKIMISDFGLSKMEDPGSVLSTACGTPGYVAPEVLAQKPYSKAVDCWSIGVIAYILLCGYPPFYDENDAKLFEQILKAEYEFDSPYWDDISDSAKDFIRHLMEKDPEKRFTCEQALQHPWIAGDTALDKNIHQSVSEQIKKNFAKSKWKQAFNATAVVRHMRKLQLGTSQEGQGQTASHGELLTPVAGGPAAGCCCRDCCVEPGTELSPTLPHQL

[16] = molecular target: IKBKE (human) (UniProt Q14164)
[17] = molecular target: RIPK2 (human) (UniProt O43353)
[18] = molecular target: MKNK2 (human) (UniProt Q9HBH9)
[19] = test system: SGK1 (human), O00141 [S422D]
[20] = molecular target: MAPKAPK5 (human) (UniProt Q8IW41)
Sequence of MAPKAPK5 (human) (Q8IW41 whole entry, looked up): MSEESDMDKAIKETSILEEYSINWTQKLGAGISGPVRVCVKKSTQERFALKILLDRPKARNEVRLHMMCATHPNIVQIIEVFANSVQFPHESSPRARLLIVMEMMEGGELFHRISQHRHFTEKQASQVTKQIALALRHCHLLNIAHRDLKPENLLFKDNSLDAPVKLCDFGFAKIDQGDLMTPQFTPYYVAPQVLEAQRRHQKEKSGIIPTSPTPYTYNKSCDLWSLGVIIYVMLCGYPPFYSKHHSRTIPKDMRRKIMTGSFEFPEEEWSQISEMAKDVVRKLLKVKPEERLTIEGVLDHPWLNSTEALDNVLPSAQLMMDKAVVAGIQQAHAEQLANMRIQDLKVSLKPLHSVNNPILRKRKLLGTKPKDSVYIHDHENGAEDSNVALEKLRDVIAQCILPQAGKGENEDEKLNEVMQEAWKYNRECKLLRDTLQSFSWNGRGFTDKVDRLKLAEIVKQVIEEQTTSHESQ

[21] = molecular target: MAPK3 (human) (UniProt P27361)
[22] = molecular target: MAP2K1 (human) (UniProt Q02750)
[23] = molecular target: RPS6KA5 KD1 KD2 (human) (UniProt O75582)
[24] = molecular target: CSNK2A1 (human) (UniProt P68400)
Sequence of CSNK2A1 (human) (P68400 whole entry, looked up): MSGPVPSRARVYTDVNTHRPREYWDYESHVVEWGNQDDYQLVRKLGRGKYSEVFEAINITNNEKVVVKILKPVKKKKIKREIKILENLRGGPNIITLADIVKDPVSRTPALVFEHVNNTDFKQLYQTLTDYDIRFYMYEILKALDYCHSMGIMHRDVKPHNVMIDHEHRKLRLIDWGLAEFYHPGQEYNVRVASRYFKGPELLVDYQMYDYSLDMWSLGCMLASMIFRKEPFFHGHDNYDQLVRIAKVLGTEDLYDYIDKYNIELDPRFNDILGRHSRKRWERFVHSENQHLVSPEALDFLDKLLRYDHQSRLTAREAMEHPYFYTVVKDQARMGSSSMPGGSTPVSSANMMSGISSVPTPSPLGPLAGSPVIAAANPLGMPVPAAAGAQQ

[25] = molecular target: MAPK13 (human) (UniProt O15264)
[26] = molecular target: MAPKAPK3 (human) (UniProt Q16644)
[27] = molecular target: MAPK9 (human) (UniProt P45984)
[28] = molecular target: FLT1 (human) (UniProt P17948)
[29] = molecular target: RPS6KA1 KD1 KD2 (human) (UniProt Q15418)
[30] = molecular target: CSK (human) (UniProt P41240)
[31] = molecular target: MAP2K6 (human) (UniProt P52564)
[32] = molecular target: PDPK1 (human) (UniProt O15530); settings: compound 10.0 µM
Sequence of PDPK1 (human) (O15530 whole entry, looked up): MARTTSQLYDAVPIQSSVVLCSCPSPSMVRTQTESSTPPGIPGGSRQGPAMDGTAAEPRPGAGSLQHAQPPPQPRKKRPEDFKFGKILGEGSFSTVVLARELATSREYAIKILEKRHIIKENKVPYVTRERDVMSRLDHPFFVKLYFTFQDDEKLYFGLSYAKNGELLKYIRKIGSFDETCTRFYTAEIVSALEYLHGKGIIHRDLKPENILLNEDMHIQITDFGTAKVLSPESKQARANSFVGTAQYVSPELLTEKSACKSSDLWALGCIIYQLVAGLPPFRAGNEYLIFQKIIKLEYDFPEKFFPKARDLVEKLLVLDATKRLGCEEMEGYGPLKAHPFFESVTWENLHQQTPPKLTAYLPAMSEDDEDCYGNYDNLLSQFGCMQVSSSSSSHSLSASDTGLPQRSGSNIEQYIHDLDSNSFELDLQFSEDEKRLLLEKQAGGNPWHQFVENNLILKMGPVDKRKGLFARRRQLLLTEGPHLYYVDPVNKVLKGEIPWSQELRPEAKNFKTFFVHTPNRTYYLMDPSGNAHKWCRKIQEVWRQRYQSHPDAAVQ

[33] = molecular target: MAPK12 (human) (UniProt P53778)
[34] = molecular target: PAK4 (human) (UniProt O96013)
[35] = molecular target: NTRK1 (human) (UniProt P04629)

Sequence of INSRR (human) (P14616 whole entry, looked up): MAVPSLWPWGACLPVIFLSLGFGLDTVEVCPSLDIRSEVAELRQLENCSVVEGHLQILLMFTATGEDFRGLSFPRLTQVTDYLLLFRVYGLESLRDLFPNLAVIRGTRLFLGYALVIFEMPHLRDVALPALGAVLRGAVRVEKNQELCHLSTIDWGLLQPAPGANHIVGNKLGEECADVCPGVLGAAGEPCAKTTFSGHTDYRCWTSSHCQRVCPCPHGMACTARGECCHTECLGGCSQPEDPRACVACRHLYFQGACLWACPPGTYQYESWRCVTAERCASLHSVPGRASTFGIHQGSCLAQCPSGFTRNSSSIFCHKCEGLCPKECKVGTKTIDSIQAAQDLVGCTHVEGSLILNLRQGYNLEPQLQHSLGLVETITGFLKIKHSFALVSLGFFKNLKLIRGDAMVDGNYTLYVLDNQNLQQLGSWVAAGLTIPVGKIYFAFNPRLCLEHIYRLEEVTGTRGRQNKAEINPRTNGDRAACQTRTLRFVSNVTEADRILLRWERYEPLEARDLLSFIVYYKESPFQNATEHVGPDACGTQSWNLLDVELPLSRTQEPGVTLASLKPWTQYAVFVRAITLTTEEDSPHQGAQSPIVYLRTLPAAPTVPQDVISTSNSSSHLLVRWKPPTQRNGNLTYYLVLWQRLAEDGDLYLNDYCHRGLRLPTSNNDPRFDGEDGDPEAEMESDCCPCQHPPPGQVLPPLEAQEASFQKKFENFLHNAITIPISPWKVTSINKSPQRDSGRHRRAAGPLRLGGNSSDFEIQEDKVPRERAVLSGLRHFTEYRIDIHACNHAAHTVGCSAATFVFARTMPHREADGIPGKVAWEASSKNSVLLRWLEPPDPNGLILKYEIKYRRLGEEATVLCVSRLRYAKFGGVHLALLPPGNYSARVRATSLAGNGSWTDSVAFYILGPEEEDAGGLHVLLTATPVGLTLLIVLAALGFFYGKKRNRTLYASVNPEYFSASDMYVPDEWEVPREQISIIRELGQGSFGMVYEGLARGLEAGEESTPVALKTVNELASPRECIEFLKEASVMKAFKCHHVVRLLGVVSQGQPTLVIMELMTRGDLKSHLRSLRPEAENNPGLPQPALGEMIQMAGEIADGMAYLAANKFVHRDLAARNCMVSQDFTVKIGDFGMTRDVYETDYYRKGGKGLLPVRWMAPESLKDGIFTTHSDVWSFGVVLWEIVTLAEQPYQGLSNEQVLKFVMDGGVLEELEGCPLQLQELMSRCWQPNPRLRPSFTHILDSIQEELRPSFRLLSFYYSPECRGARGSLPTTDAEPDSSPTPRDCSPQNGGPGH

residual activity ([1]; compound 10.0 µM): 40% | residual activity ([1]; compound 100.0 µM): 22% | residual activity ([2]; compound 10.0 µM): 79% | residual activity ([3]; compound 10.0 µM): 63% | residual activity ([4]; compound 10.0 µM): 34% | residual activity ([4]; compound 100.0 µM): 69% | residual activity ([5]; compound 10.0 µM): 47% | residual activity ([5]; compound 100.0 µM): 23% | residual activity ([6]; compound 10.0 µM): 82% | residual activity ([7]; compound 10.0 µM): 87% | residual activity ([8]; compound 10.0 µM): 73% | residual activity ([9]; compound 10.0 µM): 103% | residual activity ([10]; compound 10.0 µM): 56% | residual activity ([11]; compound 10.0 µM): 95% | residual activity ([11]; compound 100.0 µM): 9% | residual activity ([12]; compound 10.0 µM): 64% | residual activity ([13]; compound 10.0 µM): 74% | residual activity ([14]; compound 10.0 µM): 101% | residual activity ([15]; compound 10.0 µM): 20% | residual activity ([15]; compound 100.0 µM): 5% | residual activity ([16]; compound 10.0 µM): 67% | residual activity ([16]; compound 100.0 µM): 4% | residual activity ([17]; compound 10.0 µM): 52% | residual activity ([17]; compound 100.0 µM): 23% | residual activity ([18]; compound 10.0 µM): 65% | residual activity ([19]; compound 10.0 µM): 96% | residual activity ([20]; compound 10.0 µM): 94% | residual activity ([21]; compound 10.0 µM): 66% | residual activity ([21]; compound 100.0 µM): 21% | residual activity ([22]; compound 10.0 µM): 80% | residual activity ([23]; compound 10.0 µM): 88% | residual activity ([24]; compound 10.0 µM): 63% | residual activity ([25]; compound 10.0 µM): 88% | residual activity ([25]; compound 100.0 µM): 46% | residual activity ([26]; compound 10.0 µM): 23% | residual activity ([26]; compound 100.0 µM): 5% | residual activity ([27]; compound 10.0 µM): 90% | residual activity ([27]; compound 100.0 µM): 64% | residual activity ([28]; compound 10.0 µM): 45% | residual activity ([28]; compound 100.0 µM): 6% | residual activity ([29]; compound 10.0 µM): 105% | residual activity ([30]; compound 10.0 µM): 83% | residual activity ([31]; compound 10.0 µM): 94% | residual activity [32]: 84% and 86% | residual activity ([33]; compound 10.0 µM): 15% | residual activity ([33]; compound 100.0 µM): 9% | residual activity ([34]; compound 10.0 µM): 74% | residual activity ([35]; compound 10.0 µM): 73%
Compound: Cc1nc(N)sc1-c1csc(Nc2cccnc2)n1

residual activity ([1]; compound 1.0 µM): 55% | residual activity ([1]; compound 10.0 µM): 28% | residual activity ([2]; compound 1.0 µM): 30% | residual activity ([2]; compound 10.0 µM): 8% | residual activity ([3]; compound 1.0 µM): 13% | residual activity ([3]; compound 10.0 µM): 4% | residual activity ([4]; compound 1.0 µM): 89% | residual activity ([4]; compound 10.0 µM): 27% | residual activity ([5]; compound 1.0 µM): 52% | residual activity ([5]; compound 10.0 µM): 22% | residual activity ([6]; compound 1.0 µM): 91% | residual activity ([6]; compound 10.0 µM): 77% | residual activity ([7]; compound 1.0 µM): 64% | residual activity ([7]; compound 10.0 µM): 21% | residual activity ([8]; compound 1.0 µM): 77% | residual activity ([8]; compound 10.0 µM): 109% | residual activity ([9]; compound 1.0 µM): 78% | residual activity ([9]; compound 10.0 µM): 42% | residual activity ([10]; compound 1.0 µM): 75% | residual activity ([10]; compound 10.0 µM): 38% | residual activity ([11]; compound 1.0 µM): 11% | residual activity ([11]; compound 10.0 µM): 6% | residual activity ([12]; compound 1.0 µM): 75% | residual activity ([12]; compound 10.0 µM): 30% | residual activity ([13]; compound 1.0 µM): 33% | residual activity ([13]; compound 10.0 µM): 8% | residual activity ([14]; compound 1.0 µM): 102% | residual activity ([14]; compound 10.0 µM): 49% | residual activity ([15]; compound 1.0 µM): 70% | residual activity ([15]; compound 10.0 µM): 31% | residual activity ([16]; compound 1.0 µM): 79% | residual activity ([16]; compound 10.0 µM): 39% | residual activity ([17]; compound 1.0 µM): 80% | residual activity ([17]; compound 10.0 µM): 48% | residual activity ([18]; compound 1.0 µM): 61% | residual activity ([18]; compound 10.0 µM): 29% | residual activity ([19]; compound 1.0 µM): 72% | residual activity ([19]; compound 10.0 µM): 30% | residual activity ([20]; compound 1.0 µM): 78% | residual activity ([20]; compound 10.0 µM): 39% | residual activity ([21]; compound 1.0 µM): 94% | residual activity ([21]; compound 10.0 µM): 45% | residual activity ([22]; compound 1.0 µM): 67% | residual activity ([22]; compound 10.0 µM): 26% | residual activity ([23]; compound 1.0 µM): 75% | residual activity ([23]; compound 10.0 µM): 49% | residual activity ([24]; compound 1.0 µM): 81% | residual activity ([24]; compound 10.0 µM): 28% | residual activity ([25]; compound 1.0 µM): 98% | residual activity ([25]; compound 10.0 µM): 26% | residual activity ([26]; compound 1.0 µM): 113% | residual activity ([26]; compound 10.0 µM): 66% | residual activity ([27]; compound 1.0 µM): 50% | residual activity ([27]; compound 10.0 µM): 15% | residual activity ([28]; compound 1.0 µM): 29% | residual activity ([28]; compound 10.0 µM): 14% | residual activity ([29]; compound 1.0 µM): 66% | residual activity ([29]; compound 10.0 µM): 26% | residual activity ([30]; compound 1.0 µM): 91% | residual activity ([30]; compound 10.0 µM): 64% | residual activity ([31]; compound 1.0 µM): 80% | residual activity ([31]; compound 10.0 µM): 27% | residual activity [32]: 33% and 37% | residual activity ([33]; compound 1.0 µM): 98% | residual activity ([33]; compound 10.0 µM): 77% | residual activity ([34]; compound 1.0 µM): 80% | residual activity ([34]; compound 10.0 µM): 25% | residual activity ([35]; compound 1.0 µM): 27% | residual activity ([35]; compound 10.0 µM): 14%
Compound: O=C1c2ccccc2-c2n[nH]c3cccc1c23
